# From US6670334B2, “Method and compositions for treating the inflammatory response” (University of Virginia Patent Foundation, priority 2001, dated 2003)
# How the values were obtained:
# PMN = test: TNF-stimulated PMN adherence to a fibrinogen-coated surface; assay type: cell-based, human
# Method: PMN adherence to fibrinogen was measured as follows as adapted from Hanlon, J. Leukocyte Biol., 50, 43 (1991). Twenty-four well flat-bottomed tissue culture plates were incubated (37° C.) overnight with 0.5 ml of fibrinogen (5 mg/ml) dissolved in 1.5% NaHCO3. The plates were emptied and each well washed 2× with 1 ml of normal saline. The wells were then filled with 1 ml of HBSS-0.1% human serum albumin containing PMN (1×10^6/ml) with and without rhTNFα (1 U/ml), adenosine deaminase (ADA) (1 U/ML), WRC-0474[SHA 211] (10 nM), CGS21680 (30 nM), adenosine (100 nM) and rolipram (100 nM). The plates were incubated for 90 minutes at 37° C. in 5% CO2. Following incubation the tissue culture wells were washed free of non-adherent cells with normal saline. The adherent monolayer of PMN was lysed with 0.1% triton-X, the amount of lactic dehydrogenase (LDH) released from the monolayer assayed (LDH kit, Sigma Co., St. Louis, Mo.), and compared to a standard curve relating the LDH content to PMN numbers.
# human neutrophils = test: Neutrophil oxidative activity (luminol-enhanced chemiluminescence), TNF/f-met-leu-phe stimulation; assay type: cell-based; conditions: TNF-alpha 10 U/ml primed, fMLP 1 μM stimulated, ADA 1 Units/ml, FIG. 13, read-out: EC50 for decreasing neutrophil oxidative activity
# Source text: A2A agonists blocking of neutrophil oxidative activity. […] This was detected by luminol-enhanced chemiluminescence. The EC50's were lower for the ester when compared to its acid.
# A one-step Ficoll-Hypaque separation procedure (Ferrante and Thong, 1980) was used to purify human neutrophils from normal heparinized (10 Units/ml) of venous blood yielding approximately 98% neutrophils; having about >95% viable as determined with trypan blue containing <50 pg/ml of endotoxin. Following separation, the neutrophils were washed with Hank's balanced salt solution (HBSS) three times.
# Neutrophil oxidative activity (luminol-enhanced chemiluminescence): The activated neutrophils emit light from unstable high-energy oxygen species produced by the plasma membrane associated NADPH oxidase and metabolized by cytoplasmic and granule enzymes. The light signal from activated neutrophils can be enhanced by the addition of luminol to the samples. […]
# The purified neutrophils (1×10^6/ml) were incubated in HBSS containing 0.1% HSA (1 ml), plus adenosine deaminase (1 Units/ml), ±JR2171 or ±CGS21680, and with TNF-alpha (10 U/ml) for 30 min at 37° C. in a shaking water bath. Then luminol ([…]) enhanced f-met-leu-phe (1 μM)-stimulated chemiluminescence was read with a Chronolog Photometer (Chronolog Corp., Havertown, Pa.) at 37° C. for 8 min. […]
# [1] = target: recombinant human A2A adenosine receptors (Homo sapiens, UniProt P29274); test: Radioligand binding assay, competition for 125I-ZM241385
# recombinant human A2A adenosine receptors, sequence (P29274 whole entry): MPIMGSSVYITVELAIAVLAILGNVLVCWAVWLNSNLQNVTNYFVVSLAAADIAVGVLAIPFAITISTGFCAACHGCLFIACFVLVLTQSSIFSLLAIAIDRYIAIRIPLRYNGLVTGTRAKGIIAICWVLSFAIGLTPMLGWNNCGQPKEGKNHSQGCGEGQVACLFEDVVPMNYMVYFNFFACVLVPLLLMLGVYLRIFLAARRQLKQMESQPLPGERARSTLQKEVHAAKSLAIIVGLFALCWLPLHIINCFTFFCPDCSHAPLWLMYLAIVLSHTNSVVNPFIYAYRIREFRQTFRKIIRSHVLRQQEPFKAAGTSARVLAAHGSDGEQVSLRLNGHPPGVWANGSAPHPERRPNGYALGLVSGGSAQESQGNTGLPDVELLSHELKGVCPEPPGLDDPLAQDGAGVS
# [2] = test system: Adult wistar rats with bacteria meningitis (BM); test: Rat model of inflammation (bacteria meningitis): CSF WBC pleocytosis and blood-brain barrier permeability; assay type: in vivo
# Method: Effects of WRC-0470 and rolipram on the extravasation of white blood cells in a rat model of inflammation. Adult wistar rats (approximately 200 g) were anesthetized with intermuscular injections of ketamine and xylazine. Bacteria meningitis (BM) was introduced via intracistemal inoculation of either E. coli strain 026:B6LPS (200 ng), cytokines (IL-1 and TNFα or LPS plus cytokines). The animals were then infused with rolipram and/or WRC-1470 over the duration of the experiment using a Harvard pump. CSF (cerebrospinal fluid) and blood was then sampled at 4 h post-inoculation and alterations in BBBP (blood-brain barrier permeability) and WBC (white blood cell) counts were determined. CSF and WBC concentrations were determined with standard hemacytometer methods. For assessment of % BBBP, rats were given an intravenous injection of 5 μCi 125I-labeled bovine serum albumin concomitant with intracistemal inoculation. Equal samples of CSF and blood were read simultaneously in a gamma counter and after subtraction of background radioactivity, % BBBP was calculated by the following formula: % BBBP=(cpm CSF/cpm blood)×100. All statistical tests were performed using Instat biostatistical software to compare the post-inoculation samples of experimental rats with the control rats. The statistical tests used to generate p-values were Student's t-test and ANOVA.
# [3] = test system: Human PMN adherent to fibrinogen; test: TNFα-stimulated superoxide release of PMN adherent to a fibrinogen coated surface; assay type: cell-based; conditions: rolipram 100 nM; WRC-0474[SHA 211] 30-300 nM, other agonists 300 nM; p<0.05; FIG. 5
# human adherent monocytes = test: Production of TNFα by purified human adherent monocytes (endotoxin-stimulated, ELISA); assay type: cell-based; conditions: ZM241385 50 nM; p=0.020; FIG. 7B
# Method: Production of TNFα by purified human adherent monocytes. A monocyte rich monolayer (>95% monocytes) was prepared by incubating 1 ml of the mononuclear leukocyte fraction (5×10^5/ml) from a Ficoll-Hypaque separation in wells of a 24 well tissue culture plate (1 hr; 37° C.; 5% CO2). […] The samples were incubated for 4 hr (37° C.; 5% CO2) and the supernatants harvested. Any suspended cells were removed by centrifugation and the cell-free samples frozen (−70° C.). TNFα was assayed in the cell-free supernatants by an ELISA kit (Cistron Biotechnology, Pine Brook, N.J.).
smiles,measurement,setting,value
"CCNC(=O)C1OC(n2cnc3c(N)nc(NCCc4ccc(CCC(=O)O)cc4)nc32)C(O)C1O (stereo not drawn) [CGS21680, 3-(4-{2-[6-amino-9-(5-ethylcarbamoyl-3,4-dihydroxy-tetrahydro-furan-2-yl)-9H-purin-2-ylamino]-ethyl}-phenyl)-propionic acid]","TNF-stimulated PMN adherence, % adhered","PMN; 30 nM, in the presence of ADA, TNF+ADA control 38%, p=0.004",30%
same,EC50,human neutrophils,2.09 nM
"CCNC(=O)C1OC(n2cnc3c(N)nc(NCCc4ccc(CCC(=O)OC)cc4)nc32)C(O)C1O (stereo not drawn) [JR2171, 3-(4-{2-[6-Amino-9-(5-ethylcarbamoyl-3,4-dihydroxy-tetrahydro-furan-2-yl)9H-purin-2-ylamino]-ethyl}-phenyl)-propionic acid methyl ester]",Ki,[1],45 nM
same,EC50,human neutrophils,0.371 nM
"COc1ccc(C2CNC(=O)C2)cc1OC1CCCC1 (stereo not drawn) [Rolipram, 4-(3-cyclopentyloxy-4-methoxyphenyl)-2-pyrrolidone]",alterations of BBBP,[2]; 0.002 μg/kg/hr,no significant effect
same,inhibition of CSF pleocytosis,"[2]; 0.01 μg/kg/hr, p<0.05, FIG. 10",99%
same,alterations of BBBP,"[2]; 0.01 or 0.005 μg/kg/hr, p<0.05",significant inhibition
same,WBC migrated into the sub-arachnoid space (CSF WBC),"[2]; rolipram alone (0.001 μg/kg/hr), p<0.050","1,670±1,273 WBC/μl"
Nc1nc(OCCc2ccc3ccccc3c2)nc2c1ncn2[C@@H]1O[C@H](CO)[C@@H](O)[C@H]1O [WRC-0018],"TNFα-stimulated adherent PMN superoxide release, agonist combined with rolipram",[3],synergistically decreased superoxide release
Cc1ccc(CCOc2nc(N)c3ncn([C@@H]4O[C@H](CO)[C@@H](O)[C@H]4O)c3n2)cc1 [WRC-0090],"TNFα-stimulated adherent PMN superoxide release, agonist combined with rolipram",[3],synergistically decreased superoxide release
"Nc1nc(NCCc2ccc(O)cc2)nc2nc(-c3ccco3)nn12 [ZM241385, 4-(2-[7-amino-2-(2-furyl)[1,2,4]-triazolo[2,3a]-[1,3,5]trazinyl-amino]ethyl)-phenol]",antagonism of the effect of WRC-0470 (300 nM) combined with rolipram (300 nM) on TNFα release from monocytes,human adherent monocytes,significantly inhibited the effect
Nc1ncnc2c1ncn2[C@@H]1O[C@H](CO)[C@@H](O)[C@H]1O [adenosine],"TNF-stimulated PMN adherence, % adhered","PMN; 100 nM, p=0.009 compared to TNF in the presence of ADA",28%
